Results on four cell lines are retold here after the supplement of paper PMC10307832.

What all share (assay): relative viability (nuclei count vs DMSO), 5 days (fraction); higher = more cells survive
Compound in the experiment “FH535 + Phenformin”: CC1=C(C=CC(=C1)[N+](=O)[O-])NS(=O)(=O)C2=C(C=CC(=C2)Cl)Cl [FH535] + N=C(N)NC(=N)NCCc1ccccc1 [Phenformin] (partner 250 µM)
A digest of the protocol:
(§1)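 Values are medians from duplicate plates. Each reflects relative viability, defined as the nuclei count of treated wells over that of vehicle wells. Lung cancer cell lines in 1536-well plates were pin-tool dosed one day after seeding with one drug alone or with a fixed anchor-drug dose plus five library-drug doses (not always all listed) in √10 steps, then fixed, stained and imaged at 4× after 5 days.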

Compound in the experiment “FH535 + Linsitinib”: CC1=C(C=CC(=C1)[N+](=O)[O-])NS(=O)(=O)C2=C(C=CC(=C2)Cl)Cl [FH535] + C[C@]1(O)C[C@@H](c2nc(-c3ccc4ccc(-c5ccccc5)nc4c3)c3c(N)nccn32)C1 [Linsitinib] (partner 1 µM)
A digest of the protocol:
as §1

Compound in the experiment “FH535 + Bortezomib”: CC1=C(C=CC(=C1)[N+](=O)[O-])NS(=O)(=O)C2=C(C=CC(=C2)Cl)Cl [FH535] + CC(C)C[C@H](NC(=O)[C@H](Cc1ccccc1)NC(=O)c1cnccn1)B(O)O [Bortezomib] (partner 0.002 µM)
A digest of the protocol:
as §1

Compound in the experiment “FH535 + AZD7762”: CC1=C(C=CC(=C1)[N+](=O)[O-])NS(=O)(=O)C2=C(C=CC(=C2)Cl)Cl [FH535] + NC(=O)Nc1cc(-c2cccc(F)c2)sc1C(=O)N[C@H]1CCCNC1 [AZD7762] (partner 0.2 µM)
A digest of the protocol:
as §1

Compound in the experiment “FH535 + Decitabine”: CC1=C(C=CC(=C1)[N+](=O)[O-])NS(=O)(=O)C2=C(C=CC(=C2)Cl)Cl [FH535] + Nc1ncn([C@H]2C[C@H](O)[C@@H](CO)O2)c(=O)n1 [Decitabine] (partner 2 µM)
A digest of the protocol: as §1

As to NCI-H3122, the relative viability was 0.374 in the experiment with FH535 + Phenformin (first compound 0.04 µM); 0.344 in the experiment with FH535 + Phenformin (first compound 0.1265 µM); 0.286 in the experiment with FH535 + Phenformin (first compound 0.4 µM); 0.164 with FH535 + Phenformin (first compound 1.265 µM); 0.989 in the experiment with FH535 + Linsitinib (first compound 0.04 µM); 1.07 with FH535 + Linsitinib (first compound 0.1265 µM). In addition, the relative viability with FH535 + Linsitinib (first compound 0.4 µM) was 0.977; in the experiment with FH535 + Linsitinib (first compound 1.265 µM), 0.895; with FH535 + Bortezomib (first compound 0.04 µM) it was 0.979; in the experiment with FH535 + Bortezomib (first compound 0.1265 µM), 0.976; in the experiment with FH535 + Bortezomib (first compound 0.4 µM), 0.989; with FH535 + Bortezomib (first compound 1.265 µM), 0.919. Also, the relative viability came out at 1.03 in the experiment with FH535 + AZD7762 (first compound 0.04 µM); 0.98 with FH535 + AZD7762 (first compound 0.1265 µM); 0.984 with FH535 + AZD7762 (first compound 0.4 µM); 0.933 with FH535 + AZD7762 (first compound 1.265 µM); 0.338 in the experiment with FH535 + Decitabine (first compound 0.04 µM); 0.393 in the experiment with FH535 + Decitabine (first compound 0.1265 µM). Besides, the relative viability with FH535 + Decitabine (first compound 0.4 µM) is 0.46; with FH535 + Decitabine (first compound 1.265 µM) it was 0.413.
Consider PC-3 [JPC-3], for which the relative viability was found to be 0.448 with FH535 + Phenformin (first compound 0.04 µM); 0.405 with FH535 + Phenformin (first compound 0.1265 µM); 0.37 in the experiment with FH535 + Phenformin (first compound 0.4 µM); 0.372 with FH535 + Phenformin (first compound 1.265 µM); 0.982 in the experiment with FH535 + Linsitinib (first compound 0.04 µM); 0.924 in the experiment with FH535 + Linsitinib (first compound 0.1265 µM). Moreover, the relative viability with FH535 + Linsitinib (first compound 0.4 µM) was found to be 0.891; with FH535 + Linsitinib (first compound 1.265 µM), 0.676; with FH535 + Bortezomib (first compound 0.04 µM), 0.846; with FH535 + Bortezomib (first compound 0.1265 µM), 0.848; with FH535 + Bortezomib (first compound 0.4 µM), 0.741; in the experiment with FH535 + Bortezomib (first compound 1.265 µM), 0.713. Besides, the relative viability with FH535 + AZD7762 (first compound 0.04 µM) is 0.773; in the experiment with FH535 + AZD7762 (first compound 0.1265 µM), 0.83; with FH535 + AZD7762 (first compound 0.4 µM), 0.656; with FH535 + AZD7762 (first compound 1.265 µM) it was 0.508; in the experiment with FH535 + Decitabine (first compound 0.04 µM) it was 0.865; in the experiment with FH535 + Decitabine (first compound 0.1265 µM), 0.805. In addition, the relative viability in the experiment with FH535 + Decitabine (first compound 0.4 µM) came out at 0.756; with FH535 + Decitabine (first compound 1.265 µM), 0.74.
On to PC-14, for which the relative viability in the experiment with FH535 + Phenformin (first compound 0.04 µM) is 0.571; with FH535 + Phenformin (first compound 0.1265 µM), 0.708; with FH535 + Phenformin (first compound 0.4 µM), 0.516; with FH535 + Phenformin (first compound 1.265 µM) it was 0.331; in the experiment with FH535 + Linsitinib (first compound 0.04 µM) it was 0.996; in the experiment with FH535 + Linsitinib (first compound 0.1265 µM), 0.937. In addition, the relative viability in the experiment with FH535 + Linsitinib (first compound 0.4 µM) is 0.959; in the experiment with FH535 + Linsitinib (first compound 1.265 µM), 0.851; with FH535 + Bortezomib (first compound 0.04 µM), 0.938; with FH535 + Bortezomib (first compound 0.1265 µM), 0.885; with FH535 + Bortezomib (first compound 0.4 µM), 0.815; in the experiment with FH535 + Bortezomib (first compound 1.265 µM), 0.759. Further, the relative viability with FH535 + AZD7762 (first compound 0.04 µM) is 0.357; in the experiment with FH535 + AZD7762 (first compound 0.1265 µM), 0.416; in the experiment with FH535 + AZD7762 (first compound 0.4 µM) it was 0.245; with FH535 + AZD7762 (first compound 1.265 µM) it was 0.349; with FH535 + Decitabine (first compound 0.04 µM), 0.218; with FH535 + Decitabine (first compound 0.1265 µM), 0.231. Besides, the relative viability was 0.242 in the experiment with FH535 + Decitabine (first compound 0.4 µM) and 0.223 with FH535 + Decitabine (first compound 1.265 µM).
As to RERF-LC-KJ, the relative viability is 0.38 with FH535 + Phenformin (first compound 0.04 µM); 0.429 with FH535 + Phenformin (first compound 0.1265 µM); 0.406 with FH535 + Phenformin (first compound 0.4 µM); 0.308 with FH535 + Phenformin (first compound 1.265 µM); 0.872 with FH535 + Linsitinib (first compound 0.04 µM); 0.896 with FH535 + Linsitinib (first compound 0.1265 µM). The relative viability with FH535 + Linsitinib (first compound 0.4 µM) was 0.854; with FH535 + Linsitinib (first compound 1.265 µM), 0.752; in the experiment with FH535 + Bortezomib (first compound 0.04 µM) it was 1.11; with FH535 + Bortezomib (first compound 0.1265 µM) it was 1.11; with FH535 + Bortezomib (first compound 0.4 µM), 1.11; with FH535 + Bortezomib (first compound 1.265 µM), 0.788. For the same cell line, the relative viability with FH535 + AZD7762 (first compound 0.04 µM) was determined as 0.905; with FH535 + AZD7762 (first compound 0.1265 µM), 1.02; with FH535 + AZD7762 (first compound 0.4 µM), 0.931; in the experiment with FH535 + AZD7762 (first compound 1.265 µM), 0.704; with FH535 + Decitabine (first compound 0.04 µM), 0.645; in the experiment with FH535 + Decitabine (first compound 0.1265 µM) it was 0.707. Also, the relative viability was 0.55 with FH535 + Decitabine (first compound 0.4 µM) and 0.467 in the experiment with FH535 + Decitabine (first compound 1.265 µM).
